T1: 14-3-3 ζ protein (human), P63104
T1 chain: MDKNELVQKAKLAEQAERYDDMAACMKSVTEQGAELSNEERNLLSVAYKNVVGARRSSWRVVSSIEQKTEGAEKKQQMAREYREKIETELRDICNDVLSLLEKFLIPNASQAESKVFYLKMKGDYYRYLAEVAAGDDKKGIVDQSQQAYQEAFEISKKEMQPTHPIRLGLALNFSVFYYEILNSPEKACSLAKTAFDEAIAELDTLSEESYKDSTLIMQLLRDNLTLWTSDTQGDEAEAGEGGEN

T2: human 14-3-3 ζ (Homo sapiens, UniProt P63104)
T2 sequence (P63104 1-245): T1 chain

B1: 14-3-3 ζ protein, P63104 1-245 (natural protein)
chain: T1 chain

Biological target: T1, 14-3-3 ζ protein (human), P63104
Assay: crystal structure
Conditions: remark: other sources report otherwise
B1 gave a stoichiometry N of 2.

These molecules were tested against T2, human 14-3-3 ζ (assay: BLI direct binding response of ginsenosides to immobilised 14-3-3 ζ). Conditions: compound concentration 271μM; Fig. 3A and B.
In the case of `CC(C)=CCC[C@](C)(O[C@@H]1O[C@H](CO[C@@H]2O[C@H](CO)[C@@H](O)[C@H](O)[C@H]2O)[C@@H](O)[C@H](O)[C@H]1O)[C@H]1CC[C@]2(C)[C@@H]1[C@H](O)C[C@@H]1[C@@]3(C)CC[C@H](O[C@@H]4O[C@H](CO)[C@@H](O)[C@H](O)[C@H]4O[C@@H]4O[C@H](CO)[C@@H](O)[C@H](O)[C@H]4O)C(C)(C)[C@@H]3CC[C@]12C` [Rb1], the “direct binding response to 14-3-3 ζ (BLI)” value (shortened to “direct binding response”) is reported as “barely interacted”. With `CC(C)=CCC[C@](C)(O)[C@H]1CC[C@]2(C)[C@@H]1[C@H](O)C[C@@H]1[C@@]3(C)CC[C@H](O)C(C)(C)[C@@H]3[C@@H](O)C[C@]12C` [PPT, 20(S)-protopanaxatriol] the “direct binding response” value was “significant affinity”. `CC(C)=CCC[C@](C)(O[C@@H]1O[C@H](CO)[C@@H](O)[C@H](O)[C@H]1O)[C@H]1CC[C@]2(C)[C@@H]1[C@H](O)C[C@@H]1[C@@]3(C)CC[C@H](O)C(C)(C)[C@@H]3[C@@H](O)C[C@]12C` [F1] was tested, and the “direct binding response” value was “barely interacted”. With `CC(C)=CCC[C@](C)(O)[C@H]1CC[C@]2(C)[C@@H]1[C@H](O)C[C@@H]1[C@@]3(C)CC[C@H](O)C(C)(C)[C@@H]3[C@@H](O[C@@H]3O[C@H](CO)[C@@H](O)[C@H](O)[C@H]3O)C[C@]12C` [Rh1] the “direct binding response” value was “barely interacted”. `CC(C)=CCC[C@](C)(O[C@@H]1O[C@H](CO)[C@@H](O)[C@H](O)[C@H]1O)[C@H]1CC[C@]2(C)[C@@H]1[C@H](O)C[C@@H]1[C@@]3(C)CC[C@H](O)C(C)(C)[C@@H]3CC[C@]12C` [CK, ginsenoside compound K] was tested, and the “direct binding response” value was “significant affinity”. With `CC(C)=CCC[C@](C)(O)[C@H]1CC[C@]2(C)[C@@H]1[C@H](O)C[C@@H]1[C@@]3(C)CC[C@H](O[C@@H]4O[C@H](CO)[C@@H](O)[C@H](O)[C@H]4O)C(C)(C)[C@@H]3CC[C@]12C` [Rh2] the “direct binding response” value was “significant affinity”. With `CC(C)=CCC[C@](C)(O[C@@H]1O[C@H](CO)[C@@H](O)[C@H](O)[C@H]1O)[C@H]1CC[C@]2(C)[C@@H]1[C@H](O)C[C@@H]1[C@@]3(C)CC[C@H](O)C(C)(C)[C@@H]3[C@@H](O[C@@H]3O[C@H](CO)[C@@H](O)[C@H](O)[C@H]3O)C[C@]12C` [Rg1] the “direct binding response” value was “significant affinity”.
